Test results: patent US9403832B2, “Pyrazolo[1,5-a]pyrimidine-based compounds, compositions comprising them, and methods of their use” (Lexicon Pharmaceuticals, Inc., priority 2012, dated 2016)
pIC50: −log10 of the molar value.

How the values were obtained:
AAK1 [1] = target: T1, AAK1 (Homo sapiens, UniProt Q2M2I8); assay: P81 filter plate assay; type: biochemical; conditions: full-length human AAK1, Mu2 substrate, 33P-ATP
T1 construct: NP_055726.2
In short: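 Full-length human AAK1 (0.2 nM, 2×) was pre-incubated 10 min at RT with compounds (top concentration 96 μM in the dilution plate), then reacted 1 h at RT with full-length human Mu2 (0.2 μM, 2×), cold ATP (2 μM, 2×) and ³³P-ATP. Reactions were stopped with phosphoric acid and captured on P81 filters for scintillation counting.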

AAK1 [2] = target: T1, AAK1; assay: HEK281 cell-based assay (CBA); conditions: HEK293F cells transfected with full length human AAK1 and AP2M1; phospho-mu2 Western blot; 3 hours incubation
Method: HEK293F cells were cultured in media containing DMEM (Gibco, cat. #11965), 10% FBS (SAFC Biosciences, cat. #12103C), 1× GPS (glutamine, penicillin and streptomycin). On day one, cells were plated on a 10 cm dish so that they are ˜80% confluent at time of transfection. Roughly 12 million cells were in a 10 cm dish at time of transfection. On day two, each dish was transfected with 48 ug DNA and 144 ul Lipofectamine 2000 (Invitrogen, cat. #11668-019). The DNA was comprised of a mixture (per 10 cm dish) containing 3 ug AAK1/HA/pIRES (full length human, NCBI accession no. NP_055726.2), 45 μg Flag/AP2MI/pcDNA (full length human), and 1.5 ml OPTI-MEM. The Lipofectamine 2000 is made up of a mixture (per 10 cm dish) containing 144 μl Lipofectamine 2000 and 1.5 ml OPTI-MEM. Each mixture was transferred to individual 15 ml tubes and incubated at RT for 5 minutes, and then the two mixes were combined and incubated at RT for 20 minutes.
Growth media was then aspirated from each 10 cm plate and replaced with 10 ml of DMEM+10% FBS (no GPS). Finally, 3 ml DNA/Lipofectamine mix was added to each 10 cm dish and mix gently followed by incubate of plate overnight at 37° C. and 5% CO2.
On day three, compounds were diluted in 100% DMSO at 1000× final concentration, followed by 3-fold serial dilutions for a total of 5 concentrations tested. Four compounds were tested per 10 cm dish. One ul of each compound dilution was then pipetted into a deep-well, 96-well plate, followed by addition of 500 μl DMEM+0.5% FBS into each well for a 2× final concentration of each compound. Cells were resuspended in a 10 cm dish by simple pipetting (HEK293 cells come off the plate that easy at this point) and then transferred to a 50 ml conical tube and pelleted by centrifugation at 1000 rpm for 5 min. Cell pellets were then resuspended in 2.75 ml DMEM+0.5% FBS per 10 cm dish and 100 μl of cell suspension transferred into each well of 96-well TC plate. Finally, 100 μl of 2× compound diluted in DMEM+0.5% FBS was then added into wells containing cell suspension for a 1× final concentration. Plates were then incubated at 37° C. and 5% CO2 for 3 hours followed by transferring of cell suspensions from each well into 12-tube PCR strips. The PCR strips were spun in a tip rack at 1000 rpm for 5 minutes to pellet cells and media was then removed by pipetting without disturbing the cell pellet.
To prepare for Western Blot analysis, cell pellets were resuspend in 40 ul 1× LDS-PAGE sample buffer (Invitrogen, cat.# NP0008)+2× Halt phophatase and protease inhibitor cocktail (Thermo Scientific, cat. #1861284), followed by sonicating each with microtip sonicator set at 5 for 8-10 seconds. Five ul of 10× NuPage Sample Reducing Agent (with 50 mM DTT) was to each sample followed by heat denaturing at 70 C for 10 min on PCR machine. A total of 10 μl per sample was loaded into each lane of a 4-20% Tris-Glycine Criterion 26-well gel (Biorad, cat. #345-0034) for the phospho-mu2 blot and 10 μl per lane in a 4-12% Bis-Tris (+MES buffer) NuPAGE 26-well gel (Invitrogen, cat.# WG1403BX10) for the mu2 blot. For controls, 2 ng of phospho-mu2 or 20 ng mu2/Flag proteins were loaded in the last well of each gel. After SDS-PAGE, samples on each gel were transferred to PVDF membrane using an iBlot and membranes were blocked for one hour in TBST+5% milk, followed by wash 3× for 5-10 min with TBST. Criterion gels were probed with rabbit anti-phospho-mu2 (1:5000; a rabbit polyclonal antibody produced by New England Peptide and affinity purified at Lexicon) in TBST+5% BSA, whereas, NuPAGE gels were probed with mouse anti-Flag (1:500; Sigma, cat.# F1804) in TBST+5% milk, and these primary antibodies were incubated overnight at 4° C. on a rocker.

T1 sequence (Q2M2I8 1-863 isoform Q2M2I8-2): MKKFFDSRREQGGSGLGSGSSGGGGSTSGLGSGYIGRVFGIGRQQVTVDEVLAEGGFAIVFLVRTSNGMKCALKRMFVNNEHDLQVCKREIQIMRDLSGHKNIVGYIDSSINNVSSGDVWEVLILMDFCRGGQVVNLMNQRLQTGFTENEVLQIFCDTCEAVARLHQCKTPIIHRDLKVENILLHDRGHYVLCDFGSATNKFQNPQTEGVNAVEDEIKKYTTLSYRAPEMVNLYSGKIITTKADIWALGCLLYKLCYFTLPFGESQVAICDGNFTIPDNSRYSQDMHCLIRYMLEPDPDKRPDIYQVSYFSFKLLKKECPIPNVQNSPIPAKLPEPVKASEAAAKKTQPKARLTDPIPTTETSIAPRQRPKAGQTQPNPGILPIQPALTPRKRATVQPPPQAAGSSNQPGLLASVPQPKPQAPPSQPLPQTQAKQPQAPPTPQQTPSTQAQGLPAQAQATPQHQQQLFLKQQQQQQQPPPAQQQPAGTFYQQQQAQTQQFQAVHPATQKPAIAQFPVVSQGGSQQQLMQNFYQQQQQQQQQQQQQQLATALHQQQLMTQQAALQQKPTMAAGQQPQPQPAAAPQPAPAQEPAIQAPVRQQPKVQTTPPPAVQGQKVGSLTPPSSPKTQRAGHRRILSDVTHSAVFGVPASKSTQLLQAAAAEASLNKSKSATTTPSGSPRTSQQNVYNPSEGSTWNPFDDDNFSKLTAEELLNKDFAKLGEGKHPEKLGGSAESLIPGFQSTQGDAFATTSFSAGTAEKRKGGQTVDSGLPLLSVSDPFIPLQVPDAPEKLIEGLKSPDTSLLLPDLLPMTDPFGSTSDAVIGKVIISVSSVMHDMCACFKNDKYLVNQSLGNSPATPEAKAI

With COc1ccc(F)cc1-c1cnn2ccc(N3CCN(C(=O)O[C@@H]4CCOC4)CC3)nc12 [(R)-tetrahydrofuran-3-yl 4-(3-(5-fluoro-2-methoxyphenyl)pyrazolo[1,5-a]pyrimidin-5-yl)piperazine-1-carboxylate] the pIC50 (AAK1 [1]) was ≥ 8.00 and the pIC50 (AAK1 [2]) was ≥ 8.00.

In the case of COc1ncccc1-c1cnn2ccc(N3CCN(C(=O)O[C@@H]4CCOC4)CC3)nc12 [(R)-tetrahydrofuran-3-yl 4-(3-(2-methoxypyridin-3-yl)pyrazolo[1,5-a]pyrimidin-5-yl)piperazine-1-carboxylate], the pIC50 (AAK1 [1]) was ≥ 8.00 and the pIC50 (AAK1 [2]) was ≥ 8.00.

For COc1ncccc1-c1cnn2ccc(N3CCN(C(=O)N4CCCCC4)CC3)nc12 [(4-(3-(2-methoxypyridin-3-yl)pyrazolo[1,5-a]pyrimidin-5-yl)piperazin-1-yl)(piperidin-1-yl)methanone], the pIC50 (AAK1 [1]) was ≥ 8.00 and the pIC50 (AAK1 [2]) was ≥ 7.00.

COc1ccc(F)cc1-c1cnn2ccc(N3CCN(C(=O)OC(C)(C)C)CC3)nc12 [tert-butyl 4-(3-(5-fluoro-2-methoxyphenyl)pyrazolo[1,5-a]pyrimidin-5-yl)piperazine-1-carboxylate] was tested, and the pIC50 (AAK1 [1]) was ≥ 8.00 and the pIC50 (AAK1 [2]) was ≥ 8.00.

In the case of [2H]C1([2H])N(C(=O)OCCOC)C([2H])([2H])C([2H])([2H])N(c2ccn3ncc(-c4cccnc4OC)c3n2)C1([2H])[2H] [2-methoxyethyl 4-(3-(2-methoxypyridin-3-yl)pyrazolo[1,5-a]pyrimidin-5-yl)-d8-piperazine-1-carboxylate], the pIC50 (AAK1 [1]) was ≥ 8.00 and the pIC50 (AAK1 [2]) was ≥ 7.00.

For CC(C)(C)[C@H](N)C(=O)N1CCN(c2ccn3ncc(-c4ccccc4)c3n2)CC1 [(S)-2-amino-3,3-dimethyl-1-(4-(3-phenylpyrazolo[1,5-a]pyrimidin-5-yl)piperazin-1-yl)butan-1-one], the pIC50 (AAK1 [1]) was ≥ 8.00 and the pIC50 (AAK1 [2]) was ≥ 7.00.

With COc1ncccc1-c1cnn2ccc(N3CCN(C(=O)C4(N)CCOC4)CC3)nc12 (stereo not drawn) [(3-aminotetrahydrofuran-3-yl)(4-(3-(2-methoxypyridin-3-yl)pyrazolo[1,5-a]pyrimidin-5-yl)piperazin-1-yl)methanone] the pIC50 (AAK1 [1]) was ≥ 8.00 and the pIC50 (AAK1 [2]) was ≥ 7.00.

For [2H]C([2H])([2H])Oc1ncccc1-c1cnn2ccc(N3CCN(C(=O)OC(C)(C)C)CC3)nc12 [tert-butyl 4-(3-(2-d3-methoxypyridin-3-yl)pyrazolo[1,5-a]pyrimidin-5-yl)piperazine-1-carboxylate], the pIC50 (AAK1 [1]) was ≥ 8.00 and the pIC50 (AAK1 [2]) was ≥ 8.00.

For COc1ncc(C)cc1-c1cnn2ccc(N3CCN(C(=O)OC(C)C)CC3)nc12 [isopropyl 4-(3-(2-methoxy-5-methylpyridin-3-yl)pyrazolo[1,5-a]pyrimidin-5-yl)piperazine-1-carboxylate], the pIC50 (AAK1 [1]) was ≥ 8.00 and the pIC50 (AAK1 [2]) was ≥ 8.00.

For COc1ccc(F)cc1-c1cnn2ccc(N3CCN(C(=O)[C@@H](N)C(C)(C)C)CC3)nc12 [(S)-2-amino-1-(4-(3-(5-fluoro-2-methoxyphenyl)pyrazolo[1,5-a]pyrimidin-5-yl)piperazin-1-yl)-3,3-dimethylbutan-1-one], the pIC50 (AAK1 [1]) was ≥ 8.00 and the pIC50 (AAK1 [2]) was ≥ 8.00.

CCOC(=O)N1CCN(c2ccn3ncc(-c4ccc(C)nc4OC)c3n2)CC1 [ethyl 4-(3-(2-methoxy-6-methylpyridin-3-yl)pyrazolo[1,5-a]pyrimidin-5-yl)piperazine-1-carboxylate] was tested, and the pIC50 (AAK1 [1]) was ≥ 8.00 and the pIC50 (AAK1 [2]) was ≥ 7.00.

With CCOC(=O)N1CCN(c2ccn3ncc(-c4cc(F)cnc4OC)c3n2)CC1 [ethyl 4-(3-(5-fluoro-2-methoxypyridin-3-yl)pyrazolo[1,5-a]pyrimidin-5-yl)piperazine-1-carboxylate] the pIC50 (AAK1 [1]) was ≥ 8.00 and the pIC50 (AAK1 [2]) was ≥ 7.00.

COCCOC(=O)N1CCN(c2ccn3ncc(-c4cc(F)ccc4OC)c3n2)CC1 [2-methoxyethyl 4-(3-(5-fluoro-2-methoxyphenyl)pyrazolo[1,5-a]pyrimidin-5-yl)piperazine-1-carboxylate] was tested, and the pIC50 (AAK1 [1]) was ≥ 8.00 and the pIC50 (AAK1 [2]) was ≥ 8.00.

In the case of CC(C)C[C@H](N)C(=O)N1CCN(c2ccn3ncc(-c4ccccc4)c3n2)CC1 [(S)-2-amino-4-methyl-1-(4-(3-phenylpyrazolo[1,5-a]pyrimidin-5-yl)piperazin-1-yl)pentan-1-one], the pIC50 (AAK1 [1]) was ≥ 8.00 and the pIC50 (AAK1 [2]) was ≥ 8.00.

For CC(C)[C@H](N)C(=O)N1CCN(c2ccn3ncc(-c4ccccc4F)c3n2)CC1 [(S)-2-amino-1-(4-(3-(2-fluorophenyl)pyrazolo[1,5-a]pyrimidin-5-yl)piperazin-1-yl)-3-methylbutan-1-one], the pIC50 (AAK1 [1]) was ≥ 8.00 and the pIC50 (AAK1 [2]) was ≥ 8.00.

For [2H]C([2H])([2H])Oc1ncccc1-c1cnn2ccc(N3CCN(C(=O)OCC)CC3)nc12 [ethyl 4-(3-(2-d3-methoxypyridin-3-yl)pyrazolo[1,5-a]pyrimidin-5-yl)piperazine-1-carboxylate], the pIC50 (AAK1 [1]) was ≥ 8.00 and the pIC50 (AAK1 [2]) was ≥ 7.00.

For CCOc1ncccc1-c1cnn2ccc(N3CCN(C(=O)OC(C)(C)C)CC3)nc12 [tert-butyl 4-(3-(2-ethoxypyridin-3-yl)pyrazolo[1,5-a]pyrimidin-5-yl)piperazine-1-carboxylate], the pIC50 (AAK1 [1]) was ≥ 8.00 and the pIC50 (AAK1 [2]) was ≥ 8.00.

For [2H]C1([2H])N(C(=O)OC(C)C)C([2H])([2H])C([2H])([2H])N(c2ccn3ncc(-c4ccc(C)nc4OC)c3n2)C1([2H])[2H] [isopropyl 4-(3-(2-methoxy-6-methylpyridin-3-yl)pyrazolo[1,5-a]pyrimidin-5-yl)-d8-piperazine-1-carboxylate], the pIC50 (AAK1 [1]) was ≥ 8.00 and the pIC50 (AAK1 [2]) was ≥ 8.00.

In the case of COc1ncccc1-c1cnn2ccc(N3CCN(C(=O)[C@@H](N)[C@@H](C)OC)CC3)nc12 [(2S,3R)-2-amino-3-methoxy-1-(4-(3-(2-methoxypyridin-3-yl)pyrazolo[1,5-a]pyrimidin-5-yl)piperazin-1-yl)butan-1-one], the pIC50 (AAK1 [1]) was ≥ 8.00 and the pIC50 (AAK1 [2]) was ≥ 7.00.

In the case of COc1ncccc1-c1cnn2ccc(N(C)C[C@@H]3CCCN3C(=O)OC(C)C)nc12 [(S)-isopropyl 2-(((3-(2-methoxypyridin-3-yl)pyrazolo[1,5-a]pyrimidin-5-yl)(methyl)amino)methyl)pyrrolidine-1-carboxylate], the pIC50 (AAK1 [1]) was ≥ 8.00 and the pIC50 (AAK1 [2]) was ≥ 8.00.

For CC(C)[C@H](N)C(=O)N1CCN(c2ccn3ncc(-c4cccc(F)c4)c3n2)CC1 [(S)-2-amino-1-(4-(3-(3-fluorophenyl)pyrazolo[1,5-a]pyrimidin-5-yl)piperazin-1-yl)-3-methylbutan-1-one], the pIC50 (AAK1 [1]) was ≥ 8.00 and the pIC50 (AAK1 [2]) was ≥ 8.00.

With COc1ncccc1-c1cnn2ccc(N(C)CCCN(C)C(=O)OC(C)C)nc12 [isopropyl (3-((3-(2-methoxypyridin-3-yl)pyrazolo[1,5-a]pyrimidin-5-yl)(methyl)amino)propyl)(methyl)carbamate] the pIC50 (AAK1 [1]) was ≥ 8.00 and the pIC50 (AAK1 [2]) was ≥ 7.00.

With CC(C)(C)OC(=O)N1CCC[C@H]1CNc1ccn2ncc(-c3ccc(CN)cc3)c2n1 [(S)-tert-butyl 2-(((3-(4-(aminomethyl)phenyl)pyrazolo[1,5-a]pyrimidin-5-yl)amino)methyl)pyrrolidine-1-carboxylate] the pIC50 (AAK1 [1]) was ≥ 8.00 and the pIC50 (AAK1 [2]) was ≥ 8.00.

In the case of CC(C)OC(=O)N1CCN(c2ccn3ncc(-c4ccc(CN)cc4)c3n2)CC1 [isopropyl 4-(3-(4-(aminomethyl)phenyl)pyrazolo[1,5-a]pyrimidin-5-yl)piperazine-1-carboxylate], the pIC50 (AAK1 [1]) was ≥ 8.00 and the pIC50 (AAK1 [2]) was ≥ 8.00.
